This note sets out measurements from patent US4820804A, “Analogs of [1,7-di-alanine, des-19-leucine]calcitonin” (Rorer Pharmaceutical Corporation, priority 1987, dated 1989).

Residues, ends and D or L forms follow the SMILES beside them. *: point of attachment. Propionyl = CCC(=O)*

Experiment [1] concerns serum calcium concentration. The following applies: rat, in vivo, sc.
Description: SCT and synthetic salmon calcitonin standard. Rats were divided into four groups of seven animals, and each group was assigned at random to a dose of standard or test solution. Low and high doses were chosen from the linear portion of the dose-response curve. For the salmon calcitonin standard, the values were 0.7 and 2.1 mcg. peptide/100 g. BW. Peptides were given by subcutaneous injection (0.2 ml/100 g. BW) and blood was withdrawn 1 hour later for serum calcium determination. Sera are processed and analyzed within two hours of collection. Results were analyzed within two hours of collection.
The nature of experiment [2]: Independent determination of the potency of the standard salmon calcitonin. The settings on record: standard used in the rat assay, independently determined. The method, then: The biological potency of [N-alpha-Propionyl-1,7-Di-Ala,Des-19-Leu] salmon calcitonin was determined by comparing the reduction of serum calcium concentration which followed administration by graded doses of [N-alpha-Propionyl-1,7-Di-Ala,Des-19-Leu] SCT and synthetic salmon calcitonin standard. Rats were divided into four groups of seven animals, and each group was assigned at random to a dose of standard or test solution. Low and high doses were chosen from the linear portion of the dose-response curve. For the salmon calcitonin standard, the values were 0.7 and 2.1 mcg. peptide/100 g. BW. Peptides were given by subcutaneous injection (0.2 ml/100 g. BW) and blood was withdrawn 1 hour later for serum calcium determination. Sera are processed and analyzed within two hours of collection. […]. Results were analyzed by a 2×2 parallel line assay [Gaddum, J. H., J. Pharm. Pharmacol., 6, 345 (1953)]. The standard salmon calcitonin used was independently determined to contain greater than 4,000 IU/mg.

Take `CCC(=O)N[C@@H](CO)C(=O)N[C@@H](CC(N)=O)C(=O)N[C@@H](CC(C)C)C(=O)N[C@@H](CO)C(=O)N[C@H](C(=O)N[C@@H](C)C(=O)N[C@H](C(=O)N[C@@H](CC(C)C)C(=O)NCC(=O)N[C@@H](CCCCN)C(=O)N[C@@H](CC(C)C)C(=O)N[C@@H](CO)C(=O)N[C@@H](CCC(N)=O)C(=O)N[C@@H](CCC(=O)O)C(=O)N[C@@H](CC(C)C)C(=O)N[C@@H](Cc1c[nH]cn1)C(=O)N[C@@H](CCCCN)C(=O)N[C@@H](CCC(N)=O)C(=O)N[C@H](C(=O)N[C@@H](Cc1ccc(O)cc1)C(=O)N1CCC[C@H]1C(=O)N[C@@H](CCCNC(=N)N)C(=O)N[C@H](C(=O)N[C@@H](CC(N)=O)C(=O)N[C@H](C(=O)NCC(=O)N[C@@H](CO)C(=O)NCC(=O)N[C@H](C(=O)N1CCC[C@H]1C(N)=O)[C@@H](C)O)[C@@H](C)O)[C@@H](C)O)[C@@H](C)O)C(C)C)[C@@H](C)O` [Des-1-Amino] (Propionyl-SNLSTAVLGKLSQELHKQTYPRTNTGSGTP-NH2): in experiment [1], the Potency came out at 7300 Iu/mg.

On to `CCC(=O)N[C@@H](C)C(=O)N[C@@H](CO)C(=O)N[C@@H](CC(N)=O)C(=O)N[C@@H](CC(C)C)C(=O)N[C@@H](CO)C(=O)N[C@H](C(=O)N[C@@H](C)C(=O)N[C@H](C(=O)N[C@@H](CC(C)C)C(=O)NCC(=O)N[C@@H](CCCCN)C(=O)N[C@@H](CC(C)C)C(=O)N[C@@H](CO)C(=O)N[C@@H](CCC(N)=O)C(=O)N[C@@H](CCC(=O)O)C(=O)N[C@@H](CC(C)C)C(=O)N[C@@H](Cc1c[nH]cn1)C(=O)N[C@@H](CCCCN)C(=O)N[C@@H](CCC(N)=O)C(=O)N[C@H](C(=O)N[C@@H](Cc1ccc(O)cc1)C(=O)N1CCC[C@H]1C(=O)N[C@@H](CCCNC(=N)N)C(=O)N[C@H](C(=O)N[C@@H](CC(N)=O)C(=O)N[C@H](C(=O)NCC(=O)N[C@@H](CO)C(=O)NCC(=O)N[C@H](C(=O)N1CCC[C@H]1C(N)=O)[C@@H](C)O)[C@@H](C)O)[C@@H](C)O)[C@@H](C)O)C(C)C)[C@@H](C)O` [N--Alpha-Propionyl, [N alpha-Propionyl, 1,7-Di-Alanine, Des-19-Leucine] salmon calcitonin] (Propionyl-ASNLSTAVLGKLSQELHKQTYPRTNTGSGTP-NH2), for which the Potency in experiment [1] worked out at 7600 Iu/mg.

Regarding `CC(C)C[C@H](NC(=O)[C@H](CCCCN)NC(=O)CNC(=O)[C@H](CC(C)C)NC(=O)[C@@H](NC(=O)[C@H](C)NC(=O)[C@@H](NC(=O)[C@H](CO)NC(=O)[C@H](CC(C)C)NC(=O)[C@H](CC(N)=O)NC(=O)[C@H](CO)NC(=O)[C@H](C)N)[C@@H](C)O)C(C)C)C(=O)N[C@@H](CO)C(=O)N[C@@H](CCC(N)=O)C(=O)N[C@@H](CCC(=O)O)C(=O)N[C@@H](CC(C)C)C(=O)N[C@@H](Cc1c[nH]cn1)C(=O)N[C@@H](CCCCN)C(=O)N[C@@H](CCC(N)=O)C(=O)N[C@H](C(=O)N[C@@H](Cc1ccc(O)cc1)C(=O)N1CCC[C@H]1C(=O)N[C@@H](CCCNC(=N)N)C(=O)N[C@H](C(=O)N[C@@H](CC(N)=O)C(=O)N[C@H](C(=O)NCC(=O)N[C@@H](CO)C(=O)NCC(=O)N[C@H](C(=O)N1CCC[C@H]1C(N)=O)[C@@H](C)O)[C@@H](C)O)[C@@H](C)O)[C@@H](C)O` [Parent, [1,7 Di-Alanine, Des-19-Leucine]Salmon Calcitonin] (H-ASNLSTAVLGKLSQELHKQTYPRTNTGSGTP-NH2), the Potency in experiment [1] was 7400 Iu/mg.

In the case of “Salmon calcitonin [standard salmon calcitonin]”, the “potency content of standard salmon calcitonin” value in experiment [2] is reported as “greater than 4,000 IU/mg”.
